Data taken from patent publication US20080039431A1, “Method of improving plant growth by reducing viral infections” (priority 2006, published 2008).
Several values for one entry are separate records, joined by “and”; a condition that tells them apart may be missing. Equal entries are not always repeated.

Assays:
[1] = tested on: tomato spotted wilt virus (TSWV); experiment: Replicated peanut field trials, in-furrow treatment at planting (Examples 1-3); type: in vivo, peanut (Arachis hypogaea L.); conditions: for TSWV Incidence (number of symptomatic feet of row per 60 foot plot): 8 replicate plots
Protocol: Cultivation—Three replicated field trials were conducted at the Bayer CropScience research farm in Tifton, Ga., using standard commercial peanut practices. Prior to planting, fields were flag staked to establish 8 replications per treatment per trial of two rows by 30 ft long (6 ft by 30 ft, 60 row feet total) each. On May 19, two cultivars of peanut (Arachis hypogaea L.), Georgia Green (two fields, Examples 1 and 2) and Carver (one field, Example 3) were planted using a two-row Monosem air planter. During the planting passes a tractor mounted compressed air system was used to spray the in-furrow treatment into the furrow before row closure. All other plots were not treated at planting. Single field passes were used to plant entire fields to ensure a uniform planting depth. Treatments— • Treated—Plots received an in-furrow application of prothioconazole at planting at a rate of 200 g prothioconazole/Ha. Through the season these plots received foliar fungicide maintenance using standard commercial fungicides including chlorothalonil and tebuconazole. • Untreated—Due to standard practices in peanut pesticide testing, each treated plot always included untreated peanut plots adjacent to the treated plots that serve as spacer rows. […] Untreated plots in Examples 1 and 3 received foliar maintenance applications to control foliar diseases. […] TSWV rating—Plots were examined periodically following emergence for differences in appearance. In certain instances, (August 19 data for example), TSWV incidence is determined as the number of row feet with TSWV symptoms (chlorosis and stunting) which was determined for the two treatments.

[2] = tested on: tomato spotted wilt virus (TSWV); experiment: Non-replicated GLP peanut residue trial, Tifton, Ga. (Example 4); type: in vivo; conditions: for Percent row feet infected with TSWV: rated August 22, 525 row ft plot
Protocol: Cultivation—A non-replicated GLP (good laboratory practice) peanut residue trial was in progress at the Tifton, Ga., location using similar cultivation methods as in Examples 1-3. The planting and in-furrow treatment date was May 26. Prothioconazole treated seed were prepared two weeks prior on May 12. Plots were 525 row ft. Treatments— • Untreated—no in-furrow treatment, chlorothalonil maintenance only for foliar diseases. • Seed treatment, in-furrow, and foliar—prothioconazole seed treatment@10 g active ingredient/100 kg seed plus prothioconazole applied in-furrow@200 g active ingredient/Ha followed by prothioconazole@100 g active ingredient/Ha on July 21, August 4, and August 18. • Foliar only—prothioconazole@200 g active ingredient/Ha on July 21, August 4, and August 18. TSWV rating—For TSWV incidence determination, on August 22 the number of row feet per plot with TSWV symptoms (chlorosis and stunting) was determined for the three treatments. Statistics cannot be run on single-replication trials.

[3] = tested on: tomato spotted wilt virus (TSWV); experiment: Non-replicated GLP peanut residue trial, Molino, Fla. (Example 5); type: in vivo; conditions: for Percent row feet infected with TSWV: Georgia Green, rated August 23, 160 row ft plot
Protocol: Cultivation—A non-replicated GLP peanut residue trial was conducted in Molino, Fla., using similar methods as in Examples 3 and 4. The cultivar used was Georgia Green. Prothioconazole treated seed were prepared on May 12. Plots were 160 row ft. in length. Treatments— • Untreated—no in-furrow treatment, chlorothalonil maintenance only for foliar diseases. • Seed treatment, in-furrow, and foliar—prothioconazole seed treatment@10 g active ingredient/100 kg seed plus prothioconazole applied in-furrow@200 g active ingredient/Ha followed by a program of three chlorothalonil applications and four applications of prothioconazole@100 g active ingredient/Ha. • Foliar only—A program of three chlorothalonil applications and four applications of prothioconazole@200 g active ingredient/Ha. TSWV rating—For TSWV incidence determination, on August 23 the number of row feet per plot with TSWV symptoms (chlorosis and stunting) was determined for the three treatments. Statistics cannot be run on single replication trials.

[4] = tested on: tomato spotted wilt virus (TSWV); experiment: Bell pepper drench trial (Example 7); type: in vivo, bell pepper (Capsicum annum L.); conditions: for Percent control of incidence of TSWV in bell peppers: Abbott's formula; for Percent incidence TSWV in bell peppers: drench, prothioconazole 0.0084 g ai/plant, imidacloprid 0.01 g/plant
Protocol: Cultivation—A trial on bell pepper (Capsicum annum L.) was initiated in Molino, Fla. to see if drenches of prothioconazole alone and in combination with the insecticide imidacloprid could control TSWV in pepper. Bell pepper plants were transplanted on April 11 into 9.1 meter plots with three replications as in Example 6. Treatments were applied as a drench in 40 ml water per plant (7 days after transplanting) on April 18 as in Example 6.
Treatments— • Untreated—no in-furrow treatment. • Imidacloprid—imidacloprid@0.01 g imidacloprid/plant. • Prothioconazole—prothioconazole@0.0084 g prothioconazole/plant. • Prothioconazole+Imidacloprid—prothioconazole@0.0084 g active ingredient/plant+imidacloprid@0.01 g imidacloprid/plant.
TSWV rating—For TSWV incidence determination, the percentage of plants with TSWV symptoms (chlorosis and stunting) was determined for the four treatments at 21, 29, 38, and 47 days after treatment as in Example 6.
Synergy formula—The Colby formula for proof of synergy was used in Example 7 as in Example 6.

[5] = tested on: tomato spotted wilt virus (TSWV); experiment: Tobacco drench / broadcast spray trial (Example 8); type: in vivo, tobacco (Nicotiana tabacum); conditions: prothioconazole 0.0084 g ai/plant, imidacloprid 0.01 g/plant (drench), acibenzolar-S-methyl 2.47 g ai/Ha broadcast spray
Description: Cultivation—A trial on tobacco (Nicotiana tabacum) was initiated in Molino, Fla., to see if drenches of prothioconazole alone and in combination with the insecticide imidacloprid could control TSWV in tobacco. Plants of cultivar C-371 Gold were transplanted on April 28 into 9.1 meter plots with three replications. All eight treatments were applied after transplanting on May 1. Foliar treatments were applied as a broadcast spray, while drenches were applied as in Example 6. Acibenzolar-S-methyl is a plant defense activator used to control TSWV in tobacco.
Treatments— • Untreated • Imidacloprid@0.01 g imidacloprid/plant • Imidacloprid@0.015 g Imidacloprid/plant • Prothioconazole@0.0084 g active ingredient/plant • Prothioconazole@0.0084 g active ingredient/plant+Imidacloprid@0.01 g imidacloprid/plant • Prothioconazole@0.0084 g active ingredient/plant+Imidacloprid@0.015 g […] label. • Acibenzolar-S-methyl@2.47 g active ingredient/Ha as a broadcast spray as per label.
TSWV rating—For TSWV incidence determination the percentage of plants with TSWV symptoms (chlorosis and stunting) was determined for the eight treatments as in Example 6.

In the case of `OC(Cc1ccccc1Cl)(Cn1nc[nH]c1=S)C1(Cl)CC1` (centres unmarked) [Prothioconazole, prothioconazole], the “Reduction of TSWV incidence compared to untreated” value ([1]; Carver trial (Example 3), in-furrow treatment) is reported as “not significant”, the “TSWV Incidence (number of symptomatic feet of row per 60 foot plot)” value ([1]; Example 1, Georgia Green, in-furrow 200 g prothioconazole/Ha at planting with foliar maintenance (chlorothalonil, tebuconazole)) is reported as 18 feet of row per 60 foot plot (2×) and 14 feet of row per 60 foot plot and 19 feet of row per 60 foot plot (2×) and 8 feet of row per 60 foot plot and 12 feet of row per 60 foot plot and 20 feet of row per 60 foot plot and the “TSWV Incidence (number of symptomatic feet of row per 60 foot plot)” value ([1]; Example 2, Georgia Green, in-furrow 200 g prothioconazole/Ha at planting with foliar maintenance, adjacent untreated had no foliar maintenance) is reported as 13 feet of row per 60 foot plot and 25 feet of row per 60 foot plot (2×) and 24 feet of row per 60 foot plot and 17 feet of row per 60 foot plot and 18 feet of row per 60 foot plot and 27 feet of row per 60 foot plot and 20 feet of row per 60 foot plot. The “TSWV Incidence (number of symptomatic feet of row per 60 foot plot)” value ([1]; Example 3, Carver, in-furrow 200 g prothioconazole/Ha at planting with foliar maintenance) was 17 feet of row per 60 foot plot and 8 feet of row per 60 foot plot and 19 feet of row per 60 foot plot and 26 feet of row per 60 foot plot and 12 feet of row per 60 foot plot and 16 feet of row per 60 foot plot and 7 feet of row per 60 foot plot and 9 feet of row per 60 foot plot, the “TSWV incidence in percent of row feet with symptoms compared to untreated controls” value ([1]; Georgia Green (Example 1 and 2), in-furrow treatment) was “significantly lower” and the “Percent row feet infected with TSWV” value ([2]; foliar only 200 g ai/Ha x3) was 30.5%. The “Percent row feet infected with TSWV” value ([2]; seed treatment 10 g ai/100 kg seed + in-furrow 200 g ai/Ha + foliar 100 g ai/Ha x3) was 24.0%, the “Number of row feet infected with TSWV compared with foliar only program or untreated” value ([2]; seed treatment, in-furrow, and foliar applications) was “numerically lower” and the “Percent row feet infected with TSWV” value ([3]; foliar only: three chlorothalonil and four prothioconazole 200 g ai/Ha applications) was 16.25%. The “Percent row feet infected with TSWV” value ([3]; seed treatment 10 g ai/100 kg seed + in-furrow 200 g ai/Ha + three chlorothalonil and four prothioconazole 100 g ai/Ha applications) was 10.6%, the “Number of row feet infected with TSWV compared with foliar only program or chlorothalonil maintenance only” value ([3]; seed treatment, in-furrow, and foliar prothioconazole applications (treatment 2)) was “numerically lower” and the “Percent control of incidence of TSWV in bell peppers” value (from here on “Percent control of incidence of TSWV”) ([4]; 21 days after treatment) was 24.90%. For the same compound, the “Percent incidence TSWV in bell peppers” value ([4]; 21 days after treatment) was 18.1%, the “Percent control of incidence of TSWV” value ([4]; 29 days after treatment) was 32.20% and the “Percent incidence TSWV in bell peppers” value ([4]; 29 days after treatment) was 31.8%. For the same compound, the “Percent control of incidence of TSWV” value ([4]; 38 days after treatment) was 12.84%, the “Percent incidence TSWV in bell peppers” value ([4]; 38 days after treatment) was 44.8% and the “Percent control of incidence of TSWV” value ([4]; 47 days after treatment) was 6.44%. The “Percent incidence TSWV in bell peppers” value ([4]; 47 days after treatment) was 49.4%, the “Increase of TSWV level from 38 DAT to 47 DAT” value ([4]; bell pepper, untreated increased by 1.4 percent) was “roughly 4.5%” and the “Percent incidence TSWV in tobacco” value ([5]; 14 days after treatment) was 32.2%. The “Percent incidence TSWV in tobacco” value ([5]; 21 days after treatment) was 35.0% and the “Percent incidence TSWV in tobacco” value ([5]; 38 days after treatment) was 56.7%.
